Reference: PubChem BioAssay AID2060495 (Molecular Pharmacology Branch, DTP, NCI, 2025)
pIC50: −log10 of the molar value.

Test system: 521955-158-R2-J5-PDC complex spheroid viability
Assay: Anticancer human tumor 521955-158-R2-J5-PDC patient-derived pancreatic carcinoma cell line growth inhibition [GQUAD]
Conditions: for pIC50: curve of first compound; for viability, T/C: stronger effect = lower value
Text: DNA G-quadruplex Stabilizer Agents in Combinations in Complex Spheroids
A high-throughput screen of multi-cell type tumor spheroids was designed to identify active combinations of DNA G-quadruplex stabilizer agents and targeted small molecules. Complex spheroids include a stromal component modeled by human endothelial cells (HUVEC) and fibroblasts modeled by human mesenchymal stem cells (MSCs). The concentration ranges selected for each drug and investigational agent were based upon clinically achievable concentrations if the clinical Cmax of the agent was known.
Compounds. The drugs and investigational agents: pidnarulex (CX-5461; NSC782164), APTO-253 (NSC789042), BRACO-19 (NSC847499), peposertib (NSC802822), ceralasertib (NSC780249), elimusertib (NSC800525), camonsertib (NSC841442), AZD-1390 (NSC803789), olaparib (NSC753686), talazoparib (NSC767125), ART-558 (NSC835418), sotorasib (NSC818433), MRTX-1133 (NSC836407), SN-38 (NSC673596), topotecan (NSC609699), etoposide (NSC141540), doxorubicin (NSC123127), gemcitabine (NSC613327), 5-fluorouracil (NSC19893), paclitaxel (NSC125973), vemurafenib (NSC761431), panobinostat (NSC761190), R-306465 (JNJ-16241199; NSC773264), adavosertib (NSC754352), TP-3654 (NSC805149), carboplatin (NSC241240), KSQ-4279 (NSC840948), and staurosporine (NSC755774) were obtained from the National Cancer Institute (NCI) Developmental Therapeutics Program Chemical Repository (34). The FDA-approved anticancer drug set is available from the NCI Developmental Therapeutics Program. […] The stock solutions were prepared in dimethyl sulfoxide (DMSO, Sigma-Aldrich, St. Louis, MO, cat. D2650) at 800-fold the tested concentration and stored at -70 degrees C prior to their use. All drugs and investigational agents were tested over a range starting from a high concentration at or near the clinical Cmax and decreasing in half-log increments. If the clinical Cmax for an agent had not been determined, the highest concentration tested was 10 microM.
2.3 Cell Culture. All cells were maintained in an incubator at 37 degrees C and 5% CO2 with 95% humidity. The PDC lines were cultured according to standard operating procedures established by the NCI PDMR. All PDCs were thawed and cultured in Matrigel-coated flasks prepared with a working solution of 1X Ham's F-12 nutrient mix, without supplementation (Invitrogen, cat. 11765054), 100 U/mL penicillin-streptomycin (Invitrogen, cat. 15140122), and 2.5% Matrigel (Corning Inc., cat. 354248) for the first three passages. The 857933-349-R-J2-PDC line was cultured in 6C/Colon 1B media, which includes advanced DMEM/F-12 (Thermo Fisher Scientific, cat. 12634028), 10 mM HEPES (Thermo Fisher Scientific, cat. 15630080), 1X GlutaMAX supplement (Thermo Fisher Scientific, cat. 35050061), 0.1 mg/mL primocin (InvivoGen, cat. ant-pm-2), 10% defined fetal bovine serum, heat inactivated (HyClone Laboratories Inc., cat. SH30070.03HI), 50% L-WRN conditioned media (ATCC, cat. CRL-3276), 1.25 mM N-Acetyl-L-cysteine (Sigma-Aldrich, cat. A9165), 10 mM nicotinamide (Sigma-Aldrich, cat. N0636), 1X B-27 supplement (Thermo Fisher Scientific, cat. 17504044), 1X N-2 supplement (Thermo Fisher Scientific, cat. 17502048), 10 microM Y-27632 dihydrochloride (Tocris Bioscience, cat. 1254), and 50 ng/mL human EGF recombinant protein (Thermo Fisher Scientific, cat. PHG0311). The 485176-168-R4-J1-PDC line was cultured in Panc media, which includes all 6C/Colon 1B media components plus 100 ng/mL human FGF-10 (Thermo Fisher Scientific, cat. 100-26), 500 nM SB-431542 (Selleckchem, cat. S1067), and gastrin (Tocris, cat. 3006).
[…]
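Further: spheroids exposed to agents for one week before reading.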
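Wherever viability, T/C is given: 100% = DMSO vehicle control viability.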

CC1COCCN1c1cc(C2(S(C)(=N)=O)CC2)nc(-c2ccnc3[nH]ccc23)n1 (configuration not stated) + CN(C)c1ccc(Nc2c3ccc(NC(=O)CCN4CCCC4)cc3nc3cc(NC(=O)CCN4CCCC4)ccc23)cc1
pIC50 (second compound 0.0316 µM): 6.06 | pIC50 (second compound 0.1 µM): 6.08 | pIC50 (second compound 0.316 µM): 5.99 | pIC50 (second compound 1 µM): 6.07 | pIC50 (second compound 3.16 µM): 5.88 | pIC50 (second compound 10 µM): 5.86 | viability, T/C (second compound 0.0316 µM, first compound 0.0316 µM): 99.7% | viability, T/C (second compound 0.0316 µM, first compound 0.1 µM): 93.1% | viability, T/C (second compound 0.0316 µM, first compound 0.316 µM): 98% | viability, T/C (second compound 0.0316 µM, first compound 1 µM): 44.1% | viability, T/C (second compound 0.0316 µM, first compound 3.16 µM): 16.2% | viability, T/C (second compound 0.0316 µM, first compound 10 µM): 17.2% | viability, T/C (second compound 0.1 µM, first compound 0.0316 µM): 104% | viability, T/C (second compound 0.1 µM, first compound 0.1 µM): 112% | viability, T/C (second compound 0.1 µM, first compound 0.316 µM): 117% | viability, T/C (second compound 0.1 µM, first compound 1 µM): 38.4% | viability, T/C (second compound 0.1 µM, first compound 3.16 µM): 17.5% | viability, T/C (second compound 0.1 µM, first compound 10 µM): 16.8% | viability, T/C (second compound 0.316 µM, first compound 0.0316 µM): 97.1% | viability, T/C (second compound 0.316 µM, first compound 0.1 µM): 99.2% | viability, T/C (second compound 0.316 µM, first compound 0.316 µM): 99% | viability, T/C (second compound 0.316 µM, first compound 1 µM): 50.6% | viability, T/C (second compound 0.316 µM, first compound 3.16 µM): 12.9% | viability, T/C (second compound 0.316 µM, first compound 10 µM): 13.7% | viability, T/C (second compound 1 µM, first compound 0.0316 µM): 99.3% | viability, T/C (second compound 1 µM, first compound 0.1 µM): 93.8% | viability, T/C (second compound 1 µM, first compound 0.316 µM): 91.5% | viability, T/C (second compound 1 µM, first compound 1 µM): 43.3% | viability, T/C (second compound 1 µM, first compound 3.16 µM): 14.8% | viability, T/C (second compound 1 µM, first compound 10 µM): 14.5% | viability, T/C (second compound 3.16 µM, first compound 0.0316 µM): 86.4% | viability, T/C (second compound 3.16 µM, first compound 0.1 µM): 78.4% | viability, T/C (second compound 3.16 µM, first compound 0.316 µM): 89.2% | viability, T/C (second compound 3.16 µM, first compound 1 µM): 61.5% | viability, T/C (second compound 3.16 µM, first compound 3.16 µM): 15.8% | viability, T/C (second compound 3.16 µM, first compound 10 µM): 14.8% | viability, T/C (second compound 10 µM, first compound 0.0316 µM): 61% | viability, T/C (second compound 10 µM, first compound 0.1 µM): 76.7% | viability, T/C (second compound 10 µM, first compound 0.316 µM): 69.1% | viability, T/C (second compound 10 µM, first compound 1 µM): 58.9% | viability, T/C (second compound 10 µM, first compound 3.16 µM): 26.9% | viability, T/C (second compound 10 µM, first compound 10 µM): 20.5%
